ChEMBL document CHEMBL4825750, “Evaluation of Elaiophylin extracted from Streptomyces hygroscopicus as a potential inhibitor of the NorA efflux protein in Staphylococcus aureus: An in vitro and in silico approach” (2021)
Converted amounts (≈) assume the structure as drawn. The source made the active and inactive calls. The rule behind the calls is not given here.

Columns and labels:
[1] = molecular target: T1, Quinolone resistance protein NorA (Staphylococcus aureus) (UniProt P0A0J7); experiment: Inhibition of NorA in Staphylococcus aureus SA-1199B assessed as potentiation of ethidium bromide-mediated antibacterial activity by measuring ethidium bromide MIC incubated for 24 hrs by resazurin assay
T1 sequence (whole entry): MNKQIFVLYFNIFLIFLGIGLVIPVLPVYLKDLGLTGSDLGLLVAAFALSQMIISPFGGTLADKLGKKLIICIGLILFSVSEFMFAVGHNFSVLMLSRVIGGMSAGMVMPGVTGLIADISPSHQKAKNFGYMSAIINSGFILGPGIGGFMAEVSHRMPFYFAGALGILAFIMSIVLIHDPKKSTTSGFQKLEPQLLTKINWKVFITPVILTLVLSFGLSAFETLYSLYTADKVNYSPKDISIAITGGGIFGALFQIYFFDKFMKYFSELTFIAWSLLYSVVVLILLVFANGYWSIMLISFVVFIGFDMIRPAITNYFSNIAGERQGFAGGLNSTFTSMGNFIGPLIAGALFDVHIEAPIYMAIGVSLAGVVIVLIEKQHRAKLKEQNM

[2] = test system: Staphylococcus aureus; experiment: Antibacterial activity against Staphylococcus aureus SA-1199B overexpressing NorA incubated for 24 hrs by broth microdilution method; assay type: functional
[3] = molecular target: T1, Quinolone resistance protein NorA (Staphylococcus aureus); experiment: Inhibition of NorA in Staphylococcus aureus SA-1199 assessed as potentiation of ethidium bromide-mediated antibacterial activity by measuring ethidium bromide MIC incubated for 24 hrs by resazurin assay
[4] = molecular target: T1, Quinolone resistance protein NorA (Staphylococcus aureus); experiment: Inhibition of NorA in Staphylococcus aureus SA-1199B assessed as potentiation of norfloxacin-mediated antibacterial activity by measuring norfloxacin MIC incubated for 24 hrs by resazurin assay
[5] = molecular target: T1, Quinolone resistance protein NorA (Staphylococcus aureus); experiment: Inhibition of NorA in Staphylococcus aureus SA-1199 assessed as potentiation of norfloxacin-mediated antibacterial activity by measuring norfloxacin MIC incubated for 24 hrs by resazurin assay
[6] = test system: Staphylococcus aureus; experiment: Decrease in NorA gene expression in Staphylococcus aureus SA-1199B by RT-qPCR; assay type: functional
[7] = test system: Staphylococcus aureus; experiment: Decrease in NorA gene expression in Staphylococcus aureus SA-1199B in combination with norfloxacin by RT-qPCR; assay type: functional
[8] = test system: Staphylococcus aureus; experiment: Antibacterial activity against wild-type Staphylococcus aureus SA-1199 incubated for 24 hrs by broth microdilution method; assay type: functional

## CC[C@@H]1[C@@H](C)O[C@@](O)([C@@H](C)[C@H](O)[C@H](C)[C@H]2OC(=O)/C=C/C=C/[C@H](C)[C@@H]([C@@H](C)[C@@H](O)[C@H](C)[C@@]3(O)C[C@@H](O[C@H]4C[C@H](O)[C@H](O)[C@H](C)O4)[C@H](CC)[C@@H](C)O3)OC(=O)/C=C/C=C/[C@@H]2C)C[C@H]1O[C@H]1C[C@H](O)[C@H](O)[C@H](C)O1
[1]
  MIC: 1 µg/mL
[2]
  MIC: 0.5 µg/mL (≈ 0.488 µM)
[3]
  MIC: 1 µg/mL
[4]
  MIC: 1 µg/mL
[5]
  MIC: 1 µg/mL
[6]
  Activity: Active
[7]
  Activity: Active
[8]
  MIC: 0.5 µg/mL (≈ 0.488 µM)

## N#CC(C#N)=NNc1cccc(Cl)c1
[1]
  MIC: 8 µg/mL
[3]
  MIC: 4 µg/mL
[4]
  MIC: 8 µg/mL
[5]
  MIC: 8 µg/mL

## CCn1cc(C(=O)O)c(=O)c2cc(F)c(N3CCNCC3)cc21 [NORFLOXACIN]
[2]
  MIC: 256 µg/mL (≈ 802 µM)
[8]
  MIC: 64 µg/mL (≈ 200 µM)
